Data set [1] concerns potassium depolarized strips. Nature of the data set: Relaxing effect on potassium depolarized strips.
Data set [2] in a line: Membrane permeation test, diffusion of SIN 1 through Visking type cellophane membrane. Format: physicochemical. Conditions: SIN 1 alone, 1 mg/ml, 37°±1° C. Here is the method: Visking type cellophane membrane (average pore diameter 24 Angstroms) was used. […] The solutions were stirred by magnetic stirrers and were kept at 37°±1° C. […] The test was repeated in the presence of different cyclodextrins at different concentrations in the donor cell compartment.

A short description of data set [3]: Change of λ max of SIN 1 with time in phosphate buffers of pH 6.4, 7.0 and 7.6 with and without CDPSI (UV spectrophotometry). Format: physicochemical. As to conditions: for λ max.: 1 mg/ml SIN 1, +CDPSI 20 mg/ml.
Data set [4] concerns rats. Put plainly: Cardioprotective activity on rats, p.o. Format: in vivo.
A short description of data set [5]: HPLC decomposition test of SIN 1 in pH 6.3 phosphate buffer, 5 weeks. Type of data set: physicochemical. Conditions: room temperature, protected from light, complex in pH 6.3 phosphate buffer with 50 mg/ml CDPSI, control in distilled water. Here is the method:
(§1) The quantitive measurement of the decomposition degree was carried out by the HPLC method too.
(§2) HPPLC measurement circumstances to the separation of SIN 1-SIN 1 C
(§3) ______________________________________
(§4) Beckman 114 M Solvent Delivery Module,
(§5) 165 Variable Wavelength Detektor, Hewlett-Packard
(§6) Column: Ultrasphere ODS analytical column […],
(§7) Eluent: 0.05 M sodium acetate:
(§8) flowing rate: 1.0 ml/min.
(§9) chart speed: 0.5 cm/min.
(§10) retention times: tR SIN1: 2.9 min.
1. […] Complex was formed with 50 mg/ml (100 fold quantity) of CDPSI. After storage of 5 weeks the HPLC chromatograms were evaluated.

Data set [6] can be described thus: Thin-layer chromatography of SIN 1 decomposition with and without CDPSI. Format: physicochemical. As to conditions: 1 day of storage. Here is the method: In such a concentration range spectrophotometric measurement dose not give a descriptive picture. For this reason the decomposition degree was determined by thin-layer chromatography in the following way: From the solutions 10 μl were dropwise added on a Kieselgel 60 F254 plate (10×10 cm, Merck). Running mixture: cyclohexane:ethyl-acetate in a ratio of 1:1. The running tub was let for 30 minutes to saturation. On the plate also SIN 1C reference solution was dropwise added. On the dropping spot the plate was dried in a cold air flow protected from light and it was let to run up to a […] height. During the running period the running tub was put on a dark place. After evaporation of the solvent the plate was evaluated visually in UV light at 254 nm.

Data set [7] can be described thus: Hydrolytic decomposition of SIN 1 to SIN 1C as function of pH (literature / background). Type of data set: physicochemical. As to conditions: diffused lighting. Here is the method:
It can be generally said that the sydnonimine derivatives are sensitive to extreme pH values, and are decomposed quickly. […] The process is strictly pH dependent, e.g. to achieve a decomposition of 10% (SIN 1C) 53 sec. at a pH value of 8, 15 hours at a pH of 6, 67 days at a pH of 4, and 13 years at a pH of 1-2 are necessary. (Chem. Pharm. Bull. 19/6 1079, 1971). […] The decomposition can be followed from the UV spectrum directly.

Data set [8] in a line: UV spectrum shift of dilute aqueous SIN 1 solution (about 10 μg/ml) with cyclodextrins, diffuse lighting, room temperature. Type of data set: physicochemical. As to conditions: for efficiency sequence concluded from the UV spectrum shift: stabilizing effect on SIN 1, ranking in words. Here is the method:
The solutions were stored at room temperature (20°-22° C.) in diffuse lighting and in certain periods (daily) the UV spectrum of the solutions were registered in the interval between 220-350 nm. As a control only the aqueous solution, and the 0,05N hydrochloric acid solution were used respectively. […] The pH values of the applied cyclodextrin solutions of greatest concentration differed only within ±0.2 unit from the pH value of distilled water.
The decomposition hindering, slow down effect of DIMEB (2,6-di-O-methyl-β-cyclodextrin) is definite too. In the presence of 20 mg/ml DIMEB the spectrum of the solution has shown only a shift within 1 nm after a 6 day storage. We also tested the stabilizing effect of TRIMEB (2,3,6-tri-O-methyl-β-cyclodextrin), of γ-CO, β-CO and of hydroxypropyl-β-CO. The efficiency sequence concluded from the UV spectrum shift was as follows: […]

A short description of data set [9]: HPLC decomposition test of SIN 1 in pH 7 phosphate buffer, 4 days. Format: physicochemical. Here is the method:
as §1, §2, §3, §4, §5, §6, §7, §8, §9, §10
2. The test was carried out in a pH 7 phosphate buffer too, choosing similar concentration circumstances.
The chromatograms obtained after 4 days storage were evaluated.

Data set [10] is described as follows: Transformation SIN 1→SIN 1A→SIN 1C in the presence of cyclodextrins in 0.02M acetate buffer pH 5.5 (HPLC). Type of data set: physicochemical. The text has this: (The SIN 1A was detected by HPLC)
Setting [11] is: 4 days, 0,5 mg/ml SIN 1, 50 mg/ml CDPSI.

Molecules are shown by their SMILES.

For `N=c1c[n+](N2CCOCC2)[n-]o1` [SIN 1, 3-morpholino-sydnonimine], in data set [1] (1 or 2 μM), the “T/2 (duration of action)” value worked out at 47 min. The “T/max (time of maximal relaxation)” value in data set [1] (after administration, 1 or 2 μM) is on record as 18 min. The inhibition at 1 µM in data set [1] (read-out: maximal relaxation of sustained contraction) stood at 58%. For the same compound, the “T 50% (diffusion half life of SIN 1)” value in data set [2] was determined as 54 min. In addition, the Δλ in [3] (buffer pH 6,4, after 6 days) amounted to 12 nm. Further, the λ max. worked out at 291.5 nm in data set [3] (pH 6.4, 0 days (at preparation)); 289.0 nm in [3] (pH 6.4, 1 day); 284.9 nm in data set [3] (pH 6.4, 4 days); 279.8 nm in data set [3] (pH 6.4, 6 days); 290.6 nm in data set [3] (pH 7.0, 0 days (at preparation)); 280.4 nm in [3] (pH 7.0, 1 day). Besides, the λ max. in data set [3] (pH 7.0, 6 days) was 277.3 nm; in data set [3] (pH 7.6, 0 days (at preparation)) it was 291.2 nm; in data set [3] (pH 7.6, 1 day), 276.4 nm; in [3] (pH 7.6, 6 days), 277.6 nm. Also, the activity in words entry in [4] (1 mg/kg) is “does not exert an activity”. The compound further displayed a cardioprotective activity in data set [4] (1 mg/kg (complex: same active ingredient)) of 11%. Also, the “Active ingredient content: SIN 1” value in [5] was 0,016; in data set [9] (setting [11]), 0.041 mg/mL. Also, the “unchanged SIN 1 (TLC)” value in data set [6] (pH 7 buffer) is “still perceptible”; in [6] (pH 7.6 buffer), “practically no longer detectable”. In addition, the “time of decomposition in diluted aqueous solution” value in [7] fell in the range of 1 to 3 days. Further, in data set [8] (aqueous solution without cyclodextrin, stored similarly), the “time to practically complete transformation into SIN 1C” value lay in the range of 2 to 3 days. The “decomposition of control solution” value in data set [8] (distilled water, 1 week, without CDPSI, in words) is recorded as “practically decomposed”. The “pH value of the solutions after storage” value in [9] (4 days) was 6.57. The “Active ingredient content: SIN 1C” value in data set [9] (setting [11]) came out at 0.125 mg/mL.

For `COC[C@H]1O[C@@H]2O[C@H]3[C@H](OC)[C@@H](OC)[C@@H](O[C@H]4[C@H](OC)[C@@H](OC)[C@@H](O[C@H]5[C@H](OC)[C@@H](OC)[C@@H](O[C@H]6[C@H](OC)[C@@H](OC)[C@@H](O[C@H]7[C@H](OC)[C@@H](OC)[C@@H](O[C@H]8[C@H](OC)[C@@H](OC)[C@@H](O[C@H]1[C@H](OC)[C@H]2OC)O[C@@H]8COC)O[C@@H]7COC)O[C@@H]6COC)O[C@@H]5COC)O[C@@H]4COC)O[C@@H]3COC` [TRIMEB, 2,3,6-tri-O-methyl-β-cyclodextrin], the “efficiency sequence concluded from the UV spectrum shift” value in [8] is given as “CDPSI>DIMEB>TRIMEB>βCO≥HPβCO”.

With `COC[C@H]1O[C@@H]2O[C@H]3[C@H](O)[C@@H](OC)[C@@H](O[C@H]4[C@H](O)[C@@H](OC)[C@@H](O[C@H]5[C@H](O)[C@@H](OC)[C@@H](O[C@H]6[C@H](O)[C@@H](OC)[C@@H](O[C@H]7[C@H](O)[C@@H](OC)[C@@H](O[C@H]8[C@H](O)[C@@H](OC)[C@@H](O[C@H]1[C@H](O)[C@H]2OC)O[C@@H]8COC)O[C@@H]7COC)O[C@@H]6COC)O[C@@H]5COC)O[C@@H]4COC)O[C@@H]3COC` [DIMEB, 2,6-di-O-methyl-β-cyclodextrin], in data set [8] (6 day storage, 20 mg/ml DIMEB), the “shift of the UV spectrum” value was not above 1 nm. In addition, the “efficiency sequence concluded from the UV spectrum shift” value in [8] is “CDPSI>DIMEB>TRIMEB>βCO≥HPβCO”.

Regarding `OC[C@H]1O[C@@H]2O[C@H]3[C@H](O)[C@@H](O)[C@@H](O[C@H]4[C@H](O)[C@@H](O)[C@@H](O[C@H]5[C@H](O)[C@@H](O)[C@@H](O[C@H]6[C@H](O)[C@@H](O)[C@@H](O[C@H]7[C@H](O)[C@@H](O)[C@@H](O[C@H]8[C@H](O)[C@@H](O)[C@@H](O[C@H]1[C@H](O)[C@H]2O)O[C@@H]8CO)O[C@@H]7CO)O[C@@H]6CO)O[C@@H]5CO)O[C@@H]4CO)O[C@@H]3CO` [βCO, β-cyclodextrin], in [10], the “SIN 1A found vs control” value is “more than 7 fold”. Also, in data set [8], the “efficiency sequence concluded from the UV spectrum shift” value is “CDPSI>DIMEB>TRIMEB>βCO≥HPβCO”.
